From patent US5208251A, “Styryl pyrazoles, isoxazoles and analogs thereof having activity as 5-lipoxygenase inhibitors, pharmaceutical compositions and methods of use therefor” (Warner-Lambert Company, priority 1989, dated 1993)

System: cyclooxygenase
Experiment: ARBC whole cell cyclooxygenase assay (RBL-1 cells, PGF2α)
Format: cell-based, rat
Conditions: RBL-1 intact cell cyclooxygenase, PGF2α by RIA, A23187 5 μM
Method: ARBL/ARBC Whole Cell 5-Lipoxygenase and Cyclooxygenase Assays
The rat basophilic leukemia cell line (RBL-1) was obtained from the American Type Culture Collection (Rockville, Md.).
Radioimmuno assay (RIA) kits of LTB4 and PGF2α were obtained from Amersham (Arlington Heights, IL) and Seragen (Boston, Mass.) respectively.
All tissue culture media were obtained from GIBCO (Grand Island, N.Y.).
RBL-1 cells were grown in culture (suspension) in Eagle's minimum essential medium supplemented with fetal bovine serum and 1:100 antibiotic-antimycotic mixture at 37° C. in an incubator supplied with air-5% carbon dioxide. Cells were harvested by centrifugation. They were washed with cold phosphate buffered saline pH 7.4 (PBS; NaCl, 7.1 g; Na2 HPO4, 1.15 g; KH2 PO4, 0.2 g; and KCl, 0.2 g/L). […] Calcium ionophore A23187 (5 μM) was added and cells were incubated for seven minutes at 37° C. The reaction was stopped by chilling the tubes in ice for ten minutes. Cells were separated by centrifugation and the supernatant was stored at -20° . Aliquots (100 μl) were analyzed for LTB4 and PGF2α using radioimmuno assay kits as provided by the supplier.

Row | Compound | IC50 [µM]
1 | COC(=O)Cn1nc(C)cc1C=Cc1ccc(O)c(OC)c1 [Example 10I, 5-[β-(4'-Hydroxy-3'-methoxyphenyl)ethenyl]-3-methyl-1H-pyrazole-1-acetic acid methyl ester] | > 25
2 | COC(=O)Cn1nc(C=Cc2cc(C(C)(C)C)c(O)c(C(C)(C)C)c2)cc1C [Example 10G-1] | > 30
3 | COC(=O)Cn1nc(C=Cc2cc(OC)c(O)c(OC)c2)cc1C [Example 10H, 3-[β-(4'-Hydroxy-3',5'-dimethoxyphenyl)ethenyl]-5-methyl-1H-pyrazole-1-acetic acid, methyl ester] | > 30
4 | Cc1cc(C=Cc2cc(C(C)(C)C)c(O)c(C(C)(C)C)c2)nn1CC(=O)O [Example 10Q, 3-[β-(4'-Hydroxy-3',5'-di-t-butylphenyl)ethenyl]-5-methyl-1H-pyrazole-1-acetic acid] | > 30
5 | COC(=O)C(=Cc1cc(OC)c(O)c(OC)c1)c1cc(C)no1 [Example 40, 5-[α-Carbomethoxy-β-(4'-hydroxy-3',5'-dimethoxyphenyl)ethenyl]-3-methylisoxazole] | > 25
6 | COc1cc(C=Cc2cc(C)n(CC(=O)O)n2)cc(OC)c1O [Example 10N, 3-[β-(4'-Hydroxy-3',5'-dimethoxyphenyl)ethenyl]-5-methyl-1H-pyrazole-1-acetic acid] | > 30
7 | COC(=O)Cn1nc(C)cc1C=Cc1cc(C(C)(C)C)c(O)c(C(C)(C)C)c1 [Example 10G-2] | > 30
8 | COc1cc(C=Cc2cc(C)nn2CC(=O)O)cc(OC)c1O [Example 10M, 5-[β-(4'-Hydroxy-3',5'-dimethoxyphenyl)ethenyl]-3-methyl-1H-pyrazole-1-acetic acid] | > 30
9 | Cc1cc(C=Cc2cc(Cl)cc(Cl)c2O)on1 [Example 32J, 5-[β-(2'-Hydroxy-3',5'-dichlorophenyl)ethenyl]-3-methylisoxazole] | > 30
10 | Cc1cc(C=Cc2cc(C(C)(C)C)c(O)c(C(C)(C)C)c2)n(CC(=O)O)n1 [Example 10P, 5-[β-(4'-Hydroxy-3',5'-di-t-butylphenyl)ethenyl]-3-methyl-1H-pyrazole-1-acetic acid] | > 30
11 | CCOC(=O)Cn1nc(C)cc1/C=C/c1cc(OC)c(O)c(OC)c1 [Example 10D, (E)-5-[β-(4'-Hydroxy-3',5'-dimethoxyphenyl)ethenyl]-3-methyl-1H-pyrazole-1-acetic acid, ethyl ester] | > 30
12 | Cc1cc(C(=Cc2cc(C)c(O)c(C)c2)C(=O)O)on1 [Example 52, 5-[α-carboxy-β-(4'-hydroxy-3',5'-dimethylphenyl)ethenyl]-3-methylisoxazole] | > 20
